Assay in all cases: NCI tumour cell line growth inhibition, 48 h
Assay [1] deals with MOLT-4 leukemia.
In assay [2] the test system is HT29 colon.
The subject of assay [3] is SF-268 CNS.
Assay [4] has as its system SK-MEL-5 melanoma.
In assay [5] the test system is UO-31 renal.
In assay [6] the test system is SK-MEL-2 melanoma.
The subject of assay [7] is LOX IMVI melanoma.
The subject of assay [8] is U251 CNS.
In assay [9] the test system is MDA-MB-231 breast.
In assay [10] the test system is IGROV1 ovarian.

Each structure is given as a SMILES string.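 All cell lines were grown in 96-well plates and treated with compound for 48 hours. Here, GI50 denotes the concentration required for 50% inhibition of growth. TGI marks complete inhibition of growth.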

For `c1ccc2c(c1)nc(NCCN1CCNCC1)c1c3ccccc3[nH]c21`, the GI50 in assay [1] was 0.0983 µM; in [2], 0.167 µM; in assay [3] it was 0.39 µM; in [4], 1.27 µM; in assay [5] it was 0.567 µM; in [6] it was 1.41 µM. Moreover, the GI50 is 0.295 µM in [7], 0.377 µM in assay [8], 0.676 µM in assay [9] and 0.84 µM in assay [10]. Also, the TGI was found to be 0.887 µM in [1]; 1.53 µM in [2]; 2.01 µM in [3]; 2.61 µM in [4]; 2.05 µM in assay [5]; 2.89 µM in [6]. The TGI in assay [7] was found to be 1.03 µM; in assay [8] it was 1.94 µM; in [9], 2.28 µM; in assay [10], 8.18 µM.
Regarding `Cc1ccc(NCSc2ccc(Cl)cc2)cc1`, the GI50 was 6.15 µM in assay [1]; over 100 µM in assay [2]; 13.1 µM in assay [3]; over 100 µM in [4]; 1.65 µM in assay [5]; over 100 µM in assay [6]. The GI50 in assay [7] is over 100 µM; in assay [8] it was 17.8 µM; in assay [9], 15.1 µM; in [10], 15.3 µM. In addition, the TGI in assay [1] was over 100 µM; in assay [2] it was over 100 µM; in assay [3], over 100 µM; in [4], over 100 µM; in [5], 30.8 µM; in assay [6], over 100 µM. Also, the TGI in [7], in [8], in assay [9] and in assay [10] was over 100 µM in each case.
As to `O=C1OC(c2ccc(O)cc2)(c2ccc(O)cc2)c2cccc3cccc1c23`, the GI50 in [1] was 11.7 µM; in [2] it was 19.4 µM; in assay [3], 14.2 µM; in assay [4], 16.1 µM; in [5] it was 12.5 µM; in assay [6], 15.6 µM. Also, the GI50 is 15.2 µM in [7], 15.6 µM in assay [8], 14.2 µM in assay [9] and 17.6 µM in assay [10]. Besides, the TGI in [1] is 33.8 µM; in [2] it was 39.6 µM; in assay [3], 32.2 µM; in assay [4], 31.3 µM; in assay [5], 28.9 µM; in assay [6], 31.2 µM. Moreover, the TGI in assay [7] came out at 34.7 µM; in assay [8] it was 30.3 µM; in assay [9] it was 35.5 µM; in [10] it was 42.7 µM.
For `Cc1ccc(C2=Nc3c(N)ncnc3NC(c3cccc(Nc4ccnc5cc(C(F)(F)F)ccc45)c3)C2)cc1` (centres undefined), the GI50 in assay [1] was 3.4 µM; in assay [2], 2.45 µM; in assay [3], 4.47 µM; in assay [4] it was 2.05 µM; in [5], 2.79 µM; in [6], 2.15 µM. Further, the GI50 in assay [7] is 2.34 µM; in [8], 3.73 µM; in assay [9], 2.59 µM; in [10], 4.93 µM. Further, the TGI in [1] was over 100 µM; in assay [2], 7.29 µM; in [3], 47.1 µM; in [4], 4.24 µM; in [5], 22.8 µM; in assay [6], 5.15 µM. The TGI was 6.13 µM in [7], 15.1 µM in [8], 8.44 µM in [9] and 90.9 µM in [10].
With `CN1C(=O)c2cc(Cl)nc3c(NC(=O)c4cccc(Cl)c4)c(Cl)c(NC(=O)c4cccc(Cl)c4)c1c23`, the GI50 was 2.07 µM in [1]; 1.97 µM in assay [2]; 1.83 µM in assay [3]; 2.09 µM in assay [4]; 1.71 µM in [5]; 2.19 µM in assay [6]. In addition, the GI50 in assay [7] was 1.21 µM; in assay [8], 1.82 µM; in assay [9], 2.05 µM; in [10] it was 1.42 µM. The TGI is 5.21 µM in assay [1]; 4.05 µM in assay [2]; 3.73 µM in assay [3]; 4.36 µM in [4]; 3.44 µM in [5]; 4.35 µM in assay [6]. For the same molecule, the TGI in assay [7] turned out to be 2.58 µM; in assay [8] it was 3.24 µM; in assay [9], 4.24 µM; in assay [10] it was 3.15 µM.
`COc1ccc(C[C@H]2C[C@@H](O)[C@@H](C)C/C=C/Cc3cccc(O)c3C(=O)O2)cn1`: the GI50 was 35.4 µM in [1]; 31 µM in [2]; 15.9 µM in assay [3]; 17.6 µM in assay [4]; 19.9 µM in assay [5]; 14.7 µM in assay [6]. Further, the GI50 in assay [7] was 19.1 µM; in assay [8], 17.9 µM; in [9] it was 16.4 µM; in [10], 13 µM. Besides, the TGI was over 100 µM in assay [1]; over 100 µM in assay [2]; 53.5 µM in assay [3]; 35.1 µM in assay [4]; 66.1 µM in [5]; 34.5 µM in [6]. In addition, the TGI in assay [7] is 37.7 µM; in assay [8], 36.1 µM; in [9] it was 39.6 µM; in assay [10], 34.4 µM.
With `Nc1ncnc2occ(-c3ccc(NC(=O)Nc4cc(C(F)(F)F)cc(C(F)(F)F)c4)cc3)c12`, the GI50 in assay [1] is 4.16 µM; in assay [2] it was 1.83 µM; in assay [3], 2.92 µM; in assay [4], 3.52 µM; in assay [5], 1.93 µM; in assay [6], 3.72 µM. Further, the GI50 in [7] was 3.27 µM; in [8], 3.28 µM; in [9] it was 4.3 µM; in assay [10], 3.05 µM. In addition, the TGI was determined as 17.8 µM in [1]; 5.29 µM in assay [2]; 6.66 µM in [3]; 6.82 µM in assay [4]; 6.89 µM in assay [5]; 7.47 µM in [6]. The TGI stood at 6.83 µM in assay [7], 6.64 µM in assay [8], 9.09 µM in assay [9] and 9.94 µM in assay [10].
Take `COc1cc(C2C3=C(COC3=O)N(CCO)c3cc4c(cc32)CCC4)cc(OC)c1O` (centres undefined): the GI50 in assay [1] was 0.52 µM; in assay [2], 0.156 µM; in assay [3] it was 0.182 µM; in [4], 0.102 µM; in assay [5], 0.426 µM; in assay [6], 0.0795 µM. The GI50 in [7] is 0.187 µM; in assay [8], 0.145 µM; in assay [9] it was 0.76 µM; in [10], 0.159 µM. For the same molecule, the TGI in [1] is over 32.5 µM; in assay [3], over 32.5 µM; in assay [4], over 11 µM; in assay [5], over 32.5 µM; in assay [6], 0.262 µM; in assay [7], over 32.5 µM. The TGI was over 32.5 µM in [8], over 32.5 µM in assay [9] and 11.4 µM in [10].
As for `CCOP(=O)(OCC)/C(C#N)=C\c1cccc2ccccc12`, the TGI in [1] was over 100 µM; in [2], over 100 µM; in assay [3], 64.9 µM; in assay [4], over 100 µM; in [5], over 100 µM; in [6] it was over 100 µM. Also, the TGI in assay [7] is over 59.4 µM; in assay [8], over 100 µM; in assay [9], over 100 µM; in assay [10], over 100 µM.
In the case of `C[C@@H](NC(=O)Cc1cc(F)cc(F)c1)C(=O)N[C@@]1(C)N=C(c2ccccc2)c2ccccc2N(C)C1=O`, the GI50 was 11.7 µM in assay [1]; 49.4 µM in assay [2]; 30.9 µM in [3]; 35.2 µM in [4]; 30.5 µM in assay [5]; over 100 µM in [6]. In addition, the GI50 in assay [7] is 45.7 µM; in [8] it was over 84.8 µM; in assay [9], 15.9 µM; in [10], over 65.6 µM. Further, the TGI was 50.1 µM in assay [1]; over 100 µM in assay [2]; over 100 µM in assay [3]; over 100 µM in assay [4]; over 100 µM in assay [5]; over 100 µM in assay [6]. Also, the TGI in assay [7] was over 100 µM; in [8], over 100 µM; in [9] it was over 96.6 µM; in assay [10] it was over 100 µM.
Take `CC1(CC(=O)O)OC2CCCCCC2O1` (centres undefined) (tested in a mixture with another compound): the TGI in [1], in assay [2], in [3], in assay [4], in assay [5] and in assay [6] was over 100 µM throughout. For the same molecule, the TGI in assay [7], in assay [8], in assay [9] and in assay [10] was over 100 µM each time.

Source of the values: PubChem BioAssay (NCI).
